{
  "source": "patent US20180311237A1",
  "about": "“COMPOSITIONS AND METHODS FOR PREVENTING AND TREATING MUCOSITIS AND WEIGHT LOSS” (ST IP Holding AG, priority 2007, published 2018)",
  "key": {"[1]": {"system": "bone marrow cells"}, "[2]": {"format": "in vivo", "method": "(§1) Ninety-six (96) female nude mice ([…]) were randomly assigned into 8 treatment groups. Each mouse was inoculated with 1×10^6 NCI-H146 (H146) small cell lung cancer cells in a volume of 0.05 mL on their lower left flank with Matrigel. Treatment began once tumors reached a volume of 75-125 mm^3.\n(§2) Initiation of drug treatment was designated day 1. Mice in groups 1 and 5 received vehicle by oral gavage once daily on days 1 and 3. […] Mice in groups 5 to 8 received radiation. The radiation was given as 2 doses of 2 Gy/dose on days 2 and 4. This was accomplished by anesthetizing the mice in these groups with ketamine (100 mg/kg) and xylazine (5 mg/kg) and placing them under a lead shield such that the region of the flank with tumor exposed to the radiation. Radiation was delivered using a Philips 160 kV source at a focal distance of approximately 40 cm, and a dose rate of approximately 1.0 Gy/min. Tumours were measured on alternating days throughout the duration of the study. All mice were sacrificed on day 21 and remaining tumours were excised, measured, weighed, photographed and fixed in formalin for later analysis.\nAll animals were weighed every day and their survival recorded, in order to assess possible differences in animal weight among treatment groups as an indication of possible toxicity resulting from the treatments."}, "[3]": {"system": "mice exposed to 10 Gy gamma radiation", "settings": "for day of first death post-irradiation: 1 h before 10 Gy; for increase in survival compared with the CMC and irradiation group / reduction in animal survival compared with the 100 mg/kg group: thirty-day survival"}, "[4]": {"system": "NCI-H146 (H146) small cell lung cancer cells", "method": "as §1, §2\nH146 human lung cancer cells were obtained from ATCC. These cells were grown in DMEM supplemented with 10% Fetal Calf Serum (FCS), penicillin and streptomycin, and 2 mM L-Glutamine. Cells were sub-cultured by removing the medium, rinsing twice with sterile calcium- and magnesium-free phosphate buffered saline (PBS) and adding 1 to 2 ml of 0.25% trypsin, 0.03% EDTA solution. The flask was allowed to sit at 37° C. until the cells detached. Cells were then sub-cultured at a ratio of 1:3.\nTumours were measured once every two days with micro-calipers, and tumour volume was calculated as (length×width)[…]. The tumour growth index (TGI) was calculated using the formula 100−([…]), where Vc is the mean volume of the tumours in the control group and Vt is the mean volume of the tumours in the test group.\nTumour volumes were calculated from the length and width measurements taken on alternating days by calculating the mean radius (r), which was the sum of length and width divided by 4, and using the formula 4/3 πr^3 to calculate the volume."}, "[5]": {"settings": "oral administration with cysteine (Hassan M. Ali et al., 1984); cited from earlier work"}, "[6]": {"settings": "radiation plus 50 mg/kg on days 1 to 20"}, "[7]": {"settings": "radiation plus 100 mg/kg on days 1 and 3"}, "[8]": {"settings": "50 mg/kg on days 1 and 3, no radiation"}, "[9]": {"settings": "50 mg/kg on days 1 to 20, no radiation"}, "[10]": {"settings": "100 mg/kg on days 1 and 3, no radiation"}, "[11]": {"settings": "radiation plus 50 mg/kg on days 1 and 3"}},
  "note": "Read-outs that look alike come from different tables or passages of the source. Marks after values point to notes of the source that are not given here.",
  "data": [
    {"molecule": "Cc1c(-c2cnccn2)ssc1=S", "values": [
      {"measurement": "Number of Mn/1000 Cells", "setting": "[1]; drug + 8.0 Gy gamma rays", "value": "6.58 ± 0.64^c"},
      {"measurement": "Number of Mn/1000 Cells", "setting": "[1]; drug alone", "value": "0.28 ± 0.01"},
      {"measurement": "average loss of starting weight by Day 21", "setting": "[2]; 50 mg/kg po on days 1 and 3, no radiation", "value": 0.1, "unit": "%"},
      {"measurement": "average gain of starting weight by Day 21", "setting": "[2]; 50 mg/kg po on days 1 to 20, no radiation", "value": 0.8, "unit": "%"},
      {"measurement": "average gain of starting weight by Day 21", "setting": "[2]; 100 mg/kg po on days 1 and 3, no radiation", "value": 4.8, "unit": "%"},
      {"measurement": "toxicity based on observations of survival and weight change", "setting": "[2]; 50 or 100 mg/kg po, with or without radiation, 21 days", "value": "no evidence of toxicity"},
      {"measurement": "average gain of starting weight by Day 21", "setting": "[2]; radiation (2 Gy days 2 and 4) plus 50 mg/kg on days 1 and 3", "value": 0.8, "unit": "%"},
      {"measurement": "average gain of starting weight by Day 21", "setting": "[2]; [6]", "value": 1.4, "unit": "%"},
      {"measurement": "average gain of starting weight by Day 21", "setting": "[2]; [7]", "value": 5.1, "unit": "%"},
      {"measurement": "day of first death post-irradiation", "setting": "[3]; 5 mg/kg orally once", "value": 7, "unit": "days"},
      {"measurement": "increase in survival compared with the CMC and irradiation group", "setting": "[3]; 10 mg/kg, 10 Gy", "value": 20, "unit": "%"},
      {"measurement": "increase in survival compared with the CMC and irradiation group", "setting": "[3]; 25 mg/kg, 10 Gy", "value": 30, "unit": "%"},
      {"measurement": "increase in survival compared with the CMC and irradiation group", "setting": "[3]; 50 mg/kg, 10 Gy", "value": 40, "unit": "%"},
      {"measurement": "thirty-day survival", "setting": "[3]; 100 mg/kg orally before 10 Gy", "value": 60, "unit": "%"},
      {"measurement": "day of first death post-irradiation", "setting": "[3]; 100 mg/kg orally once", "value": 11, "unit": "days"},
      {"measurement": "increase in survival compared with the non-treated irradiated control", "setting": "[3]; 100 mg/kg, 10 Gy", "value": 60, "unit": "%"},
      {"measurement": "reduction in animal survival compared with the 100 mg/kg group", "setting": "[3]; 150 mg, 10 Gy", "value": 20, "unit": "%"},
      {"measurement": "mortality within 10 days of irradiation", "setting": "[3]; 150 mg/kg orally before 10 Gy", "value": "did not cause any mortality"},
      {"measurement": "reduction in animal survival compared with the 100 mg/kg group", "setting": "[3]; 200 mg, 10 Gy", "value": 20, "unit": "%"},
      {"measurement": "mortality within 10 days of irradiation", "setting": "[3]; 200 mg/kg orally before 10 Gy", "value": "did not cause any mortality"},
      {"measurement": "reduction in animal survival compared with the 100 mg/kg group", "setting": "[3]; 250 mg/kg, 10 Gy", "value": 30, "unit": "%"},
      {"measurement": "optimum protective dose", "setting": "[3]; oral, before 10 Gy", "value": 100, "unit": "mg/kg"},
      {"measurement": "mean tumour volume on Day 1", "setting": "[4]; [8]", "value": 72, "unit": "mm^3"},
      {"measurement": "mean tumour volume on Day 21", "setting": "[4]; [8]", "value": 940, "unit": "mm^3"},
      {"measurement": "mean tumour volume on Day 1", "setting": "[4]; [9]", "value": 76, "unit": "mm^3"},
      {"measurement": "mean tumour volume on Day 21", "setting": "[4]; [9]", "value": 1130, "unit": "mm^3"},
      {"measurement": "mean tumour volume on Day 1", "setting": "[4]; [10]", "value": 110, "unit": "mm^3"},
      {"measurement": "mean tumour volume on Day 21", "setting": "[4]; [10]", "value": 1341, "unit": "mm^3"},
      {"measurement": "effect on tumour volume when given in conjunction with radiation therapy", "setting": "[4]; doses and dose schedules of this study", "value": "does not have an additive effect"},
      {"measurement": "mean tumour volume on Day 1", "setting": "[4]; [11]", "value": 93, "unit": "mm^3"},
      {"measurement": "mean tumour volume on Day 21", "setting": "[4]; [11]", "value": 971, "unit": "mm^3"},
      {"measurement": "mean tumour volume on Day 1", "setting": "[4]; [6]", "value": 140, "unit": "mm^3"},
      {"measurement": "mean tumour volume on Day 21", "setting": "[4]; [6]", "value": 1380, "unit": "mm^3"},
      {"measurement": "mean tumour volume on Day 1", "setting": "[4]; [7]", "value": 63, "unit": "mm^3"},
      {"measurement": "mean tumour volume on Day 21", "setting": "[4]; [7]", "value": 769, "unit": "mm^3"},
      {"measurement": "tumour volume relative to vehicle controls by day 21", "setting": "[4]; single agent, 50 mg/kg once daily on days 1 and 3 (P=0.030)", "value": "significant reduction in tumour volume"},
      {"measurement": "extent and rate of bioavailability", "setting": "[5]", "value": "marked increase"}
    ]}
  ]
}
